Reference: PubChem BioAssay AID248 (DTP/NCI, 2004)
Where “and” joins values, the source holds several entries; their conditions need not be identical. Identical values can stand only once. Toxic doses and inconclusive results are not listed.

System: L1210 leukemia ip in BDF1 mice, survival T/C
Assay: NCI In Vivo Anticancer Drug Screen. Data for tumor model L1210 Leukemia (intraperitoneal) in B6D2F1 (BDF1) mice
Details: endpoint: mean survival time, higher = longer survival
Summary of the method: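 Survival endpoint. Drug-treated group vs vehicle group, expressed as T divided by C. Tumor passaged by transplantation.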

[1] = dose: 100.0 mg/kg/injection, schedule: Q04DX003 (ip), vehicle: saline
[2] = dose: 200.0 mg/kg/injection, schedule: Q04DX003 (ip), vehicle: saline
[3] = dose: 100.0 mg/kg/injection, schedule: Q04DX003 (ip), vehicle: Klucel (hydroxypropylcellulose) (HPC)
[4] = dose: 200.0 mg/kg/injection, schedule: Q04DX003 (ip), vehicle: Klucel (hydroxypropylcellulose) (HPC)

Which results are given for `Cn1cnc([N+](=O)[O-])c1Sc1c[nH]c(=O)[nH]c1=O`?
T/C (dose: 25.0 mg/kg/injection, schedule: Q04DX003 (ip), vehicle: saline): 107 % of control; T/C (dose: 50.0 mg/kg/injection, schedule: Q04DX003 (ip), vehicle: saline): 96 % of control; T/C [1]: 104 % of control; T/C [2]: 93 % of control; T/C (dose: 400.0 mg/kg/injection, schedule: Q04DX003 (ip), vehicle: saline): 94 % of control

Which T/C (dose: 6.0 mg/kg/injection, schedule: Q01DX001 (ip), vehicle: carboxymethylcellulose (CMC)) does the source give for `O=NN(CCCl)C(=O)NC1CCS(=O)(=O)CC1` here?
The T/C was 228 % of control.

And the T/C (dose: 7.5 mg/kg/injection, schedule: Q01DX001 (ip), vehicle: carboxymethylcellulose (CMC))?
Its T/C is 313 % of control.

What about the T/C (dose: 8.0 mg/kg/injection, schedule: Q01DX001 (ip), vehicle: carboxymethylcellulose (CMC)) of the same compound?
The T/C was 235 % of control.

And the T/C (dose: 11.4 mg/kg/injection, schedule: Q01DX001 (ip), vehicle: carboxymethylcellulose (CMC))?
The T/C was 337 % of control.

What about the T/C (dose: 12.0 mg/kg/injection, schedule: Q01DX001 (ip), vehicle: carboxymethylcellulose (CMC)) of the same compound?
The T/C was 211 % of control and 319 % of control.

What about the T/C (dose: 17.0 mg/kg/injection, schedule: Q01DX001 (ip), vehicle: carboxymethylcellulose (CMC)) of the same compound?
The T/C was 337 % of control.

What about the T/C (dose: 18.0 mg/kg/injection, schedule: Q01DX001 (ip), vehicle: carboxymethylcellulose (CMC)) of the same compound?
The T/C was 319 % of control.

And the T/C (dose: 37.0 mg/kg/injection, schedule: Q01DX001 (ip), vehicle: carboxymethylcellulose (CMC))?
The T/C was 93 % of control and 105 % of control.

For `O=C(NCCCl)C(Cl)(Cl)Cl`, which T/C [3] is on record?
Its T/C is 98 % of control.

What about the T/C [4] of the same compound?
Its T/C is 97 % of control.

And the T/C (dose: 400.0 mg/kg/injection, schedule: Q04DX003 (ip), vehicle: Klucel (hydroxypropylcellulose) (HPC))?
The T/C was 106 % of control.

Which results are given for `CCN(CC)C(C(=O)Nc1ccccc1)C(=O)Nc1ccccc1`?
T/C (dose: 100.0 mg/kg/injection, schedule: Q04DX003 (ip), vehicle: saline with Tween-80): 92 % of control; T/C (dose: 200.0 mg/kg/injection, schedule: Q04DX003 (ip), vehicle: saline with Tween-80): 94 % of control; T/C (dose: 400.0 mg/kg/injection, schedule: Q04DX003 (ip), vehicle: saline with Tween-80): 90 % of control

With `NC(Cc1ccccc1)c1ccccc1` (stereo not given) (tested in a mixture with another compound) as the compound, how does the T/C [1] read?
Its T/C is 89 % of control and 95 % of control.

What about the T/C [2] of the same compound?
The T/C was 89 % of control.

For `CCN(CC)C(=O)c1cccc(N)c1`, which T/C (dose: 100.0 mg/kg/injection, schedule: Q01DX001 (ip), vehicle: saline) is on record?
Its T/C is 98 % of control.

And the T/C (dose: 200.0 mg/kg/injection, schedule: Q01DX001 (ip), vehicle: saline)?
Its T/C is 98 % of control.

What about the T/C (dose: 400.0 mg/kg/injection, schedule: Q01DX001 (ip), vehicle: saline) of the same compound?
The T/C was 95 % of control.

With `O=C(O)COc1ccc(C(=O)c2cc(Br)ccc2OCC(=O)O)cc1` as the compound, how does the T/C (dose: 100.0 mg/kg/injection, schedule: Q01DX001 (ip), vehicle: carboxymethylcellulose (CMC)) read?
Its T/C is 105 % of control.

And the T/C (dose: 200.0 mg/kg/injection, schedule: Q01DX001 (ip), vehicle: carboxymethylcellulose (CMC))?
Its T/C is 98 % of control.

And the T/C (dose: 400.0 mg/kg/injection, schedule: Q01DX001 (ip), vehicle: carboxymethylcellulose (CMC))?
Its T/C is 103 % of control.

With `c1ccc(-c2ccc([Si](c3ccccc3)(c3ccc(-c4ccccc4)cc3)c3ccc(-c4ccccc4)cc3)cc2)cc1` as the compound, how does the T/C (dose: 50.0 mg/kg/injection, schedule: Q01DX009 (ip), vehicle: Klucel (hydroxypropylcellulose) (HPC)) read?
Its T/C is 91 % of control.

And the T/C (dose: 50.0 mg/kg/injection, schedule: Q04DX003 (ip), vehicle: Klucel (hydroxypropylcellulose) (HPC))?
Its T/C is 93 % of control.

And the T/C (dose: 100.0 mg/kg/injection, schedule: Q01DX009 (ip), vehicle: Klucel (hydroxypropylcellulose) (HPC))?
The T/C was 93 % of control.

And the T/C [3]?
Its T/C is 89 % of control.

What about the T/C (dose: 200.0 mg/kg/injection, schedule: Q01DX009 (ip), vehicle: Klucel (hydroxypropylcellulose) (HPC)) of the same compound?
The T/C was 93 % of control.

What about the T/C [4] of the same compound?
Its T/C is 88 % of control.

Which T/C (dose: 100.0 mg/kg/injection, schedule: Q01DX001 (ip), vehicle: Klucel (hydroxypropylcellulose) (HPC)) does the source give for `Nc1ccc(CC2=C(Br)CNC(=O)N2)cc1` here?
Its T/C is 102 % of control.

What about the T/C (dose: 200.0 mg/kg/injection, schedule: Q01DX001 (ip), vehicle: Klucel (hydroxypropylcellulose) (HPC)) of the same compound?
Its T/C is 103 % of control.
